For 1 molecule, AKT-mTOR-p70S6K downstream signaling results are on record in patent US10736968B2, “Cellular signalling inhibitors, their formulations and methods thereof” (INVICTUS ONCOLOGY PVT. LTD., priority 2016, dated 2020).

In the test the test system is AKT-mTOR-p70S6K pathway. Kind of test: Downstream signaling in macrophages after drug washout and MCSF exposure (Western blot). In kind it is cell-based. The settings on record: 4 hours drug, washout 7 h or 48 h, MCSF 2 h. Background: Immunoblotting shows a protein as a band on a membrane.

For `FC(F)(F)c1ccc(CNc2ccc(Cc3c[nH]c4ncc(Cl)cc34)cn2)cn1` [PLX3397], the AKT-mTOR-p70S6K downstream signaling entry is “not by BLZ945 and PLX3397”.
